Measurements: patent US20230146096A1, “USE OF VIDOFLUDIMUS FOR THE TREATMENT OF CORONAVIRUS INFECTIONS” (INSERM (Institut National de la Santé et de la Recherche …, priority 2020, published 2023)
Where two headings read alike, the source gives them in different places.

Tested on: SARS-CoV-2 strain BavPat1
Assay: Determination of EC50 and EC90: inhibition of SARS-CoV-2 viral RNA replication in Vero E6 cells (RT-qPCR)
Assay type: cell-based
Settings: for EC50: Severe acute respiratory syndrome coronavirus 2, Vero C1008, 48 h, read-out: EC50 (compound concentration required to inhibit viral RNA replication by 50%)

| SMILES | EC50 | EC50 (Vero E6 cells, MOI 0.002, 2 days at 37° C., viral RNA in supernatant, logarithmic interpolation) | effect on replication of SARS-CoV-2 (Vero E6 cells, two days of culture) |
| --- | --- | --- | --- |
| CCC(CC)COC(=O)[C@H](C)N[P@](=O)(OC[C@H]1O[C@@](C#N)(c2ccc3c(N)ncnn23)[C@H](O)[C@@H]1O)Oc1ccccc1 [remdesivir] | 6.65 µM |  |  |
| COc1cccc(-c2ccc(NC(=O)C3=C(C(=O)O)CCC3)c(F)c2)c1 [Vidofludimus, 2-[[2-fluoro-4-(3-methoxyphenyl)phenyl]carbamoyl]cyclopentene-1-carboxylic acid] |  | 23.1 µM | can repress the replication of SARS-CoV-2 in a significant manner |
